The experiment has as its target MRCKα (Homo sapiens, UniProt Q5VT25). As to the kind of experiment: HotSpot radiometric kinase assay, MRCKα. The conditions noted are these: compound 0.5 μM, 10 μM ATP. Type of experiment: biochemical.

Chain of MRCKα (Q5VT25 1-473): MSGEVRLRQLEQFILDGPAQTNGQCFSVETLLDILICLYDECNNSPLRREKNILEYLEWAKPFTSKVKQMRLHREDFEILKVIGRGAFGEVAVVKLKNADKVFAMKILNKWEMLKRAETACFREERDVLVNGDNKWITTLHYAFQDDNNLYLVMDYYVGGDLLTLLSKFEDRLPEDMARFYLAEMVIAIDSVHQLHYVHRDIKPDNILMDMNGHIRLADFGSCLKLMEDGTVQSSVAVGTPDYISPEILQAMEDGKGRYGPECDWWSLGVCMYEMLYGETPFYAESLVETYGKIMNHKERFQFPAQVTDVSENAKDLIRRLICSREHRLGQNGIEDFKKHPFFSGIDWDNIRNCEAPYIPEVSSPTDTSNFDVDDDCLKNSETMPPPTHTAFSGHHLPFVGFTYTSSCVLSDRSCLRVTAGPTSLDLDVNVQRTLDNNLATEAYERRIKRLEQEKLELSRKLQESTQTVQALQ

With `O=C(Nc1cccc(Nc2cc(Nc3cccc(C(F)(F)F)c3)ncn2)c1)C1CC1` [EGFR Inhibitor], the “inhibition of MRCKα (next most potent target)” value turned out to be 22%.

The values are drawn from paper PMC3230241 (Nature biotechnology, 2011).
